One assay has as its system rat small intestine. In words: Sustained Spike Potential (SSP) myoelectric bioassay, infusion into the duodenum via cannula in instrumented uninfected rats. The class given is in vivo. The settings on record: for SSP/Hr (MEAN ± SE): 0.2 ml infused into duodenum; for SSP frequency compared with saline controls / background (in words): 0.2 ml infused into intestinal lumen, FIG. 3; for stimulation / induction of SSP above background levels (in words): infused into intestinal lumen, concentration not stated at the place. The source says: Outbred male rats (Sprague Dawley, Harlan Sprague Dawley, Inc., Indianapolis, Ind.) were housed singly and maintained on a 12-hour light/12-hour dark cycle. All rats used in the bioassay procedure were uninfected with tapeworms. The design and surgical implantation procedure of the intestinal extracellular bipolar electrodes have been described previously (Dwinell et al., 1994, 1997). Briefly, four bipolar electrodes were surgically sutured to the intestinal serosa of each rat according to the methods of Dwinell et at. (1994), which is incorporated herein by reference. Three electrodes (J1-J3) were implanted on the jejunum at 10 cm intervals, with the first electrode (J1) placed 10 cm caudal from the ligament of Treitz and proceeding caudally with J2 and J3. A fourth electrode (designated “I” because it was placed within the ileum) was placed 20 cm orad from the ileo-caecal junction. In addition, a cannula was implanted with one end residing in the lumen of the mid-duodenum, whereas the other end was exteriorized to allow infusion of test fractions.
All compounds tested were infused into the duodenum via the cannula. Compounds were delivered in 0.2 ml aliquots followed immediately by a 0.2 ml saline cannula rinse. These volumes were used in order to prevent muscle contraction due to stretch from larger bolus volumes. To observe the induction of SSP, intestinal myoelectric activity was recorded for 90 minutes following infusion.
Consistent with the protocol of Dwinell et al. (1994), intestinal myoelectric activity was not recorded for the first five days after implantation surgery. Control recordings were taken after this period to assure the return of normal myoelectric patterns of the MMC following the cessation of post-surgical ileus. Periodic “control” recordings were made with saline on the intervening days between the tests with tapeworm-conditioned medium (TCM) or its fractions.
In vivo intestinal myoelectric activity was recorded with a polygraph chart recorder (Grass Instruments, Quincy, Mass.). The myoelectric signal from each electrode was simultaneously recorded on paper and by a personal computer with an I/O board and WINDAQ software (Dataq Instruments, Akron, Ohio) connected to the polygraph recorder by an analog-to-digital converter (Dataq Instruments).
Food was removed on each recording day at 0800 hour to prevent animal feeding and the subsequent disruption of the interdigestive myoelectric pattern. Recording occurred between 1300 and 1900 hours. All recording sessions for each animal were at least 1.5 hour in duration, and all animals were recorded while awake and unrestrained. Vehicle (0.9% saline or in some cases RPMI 1640) was used as control for test substances.
Five days after electrode and cannula implantation surgery, three consecutive baseline 90-minute recordings were made on separate days in each rat to confirm the presence of normal intestinal myoelectric activity at the end of the immediate post surgical period.
Secreted compounds were infused via the duodenal cannula and the frequency of the sustained spike potential (SSP) electrical patterns was determined from recordings of myoelectric activity. […] The third and final phase of the MMC (marked by arrowheads) is a period of >90% spiking and represents a series of contractions migrating orad to caudad along the small intestine. The caudad migration of phase III between electrode sites propels lumenal content toward the caecum.
Cyclic nucleotides were degraded to their 5′-monophosphate derivatives by incubation with bovine brain phosphodiesterase (PDE; cat. # P-0134, Sigma Co., St. Louis, Mo.).

The test system of assay [1] is Male Ross x Ross broiler chicks. The assay can be described thus: Effect of cGMP on feed conversion ratio in broiler chicks. In kind it is in vivo. As to conditions: Experiment 1. The method, then:
cGMP for use in this Example was manufactured by ICN Biomedicals (Irvine, Calif.), and purchased from Fisher Scientific (Hampton, N.H.). Male Ross x Ross broiler chicks were obtained from Sunnyside Hatchery (Beaver Dam, Wis.). Standard commercial chick mash was used as a base ration. cGMP with and without succinate was dissolved in water and sprayed as a mist onto the basal diet during continuous mixing. […] Diets were prepared 1 to 3 days prior to the start of the experiment and stored in individual plastic buckets (1 bucket/replicate). Chicks were randomly placed into treatment groups with 5 birds per replicate. Chicks were weighed as a group, so each pen of 5 animals represents n=1. Treatments and replicates were randomly assigned (via a random number generator) to pens. Chicks were fed ad libitum and checked daily. Feed intake and pen weight were recorded weekly. Feed conversion ratios were calculated as grams of feed consumed/grams of weight gain in the animals. […] The results are shown in Table 2 for two sets of experiments. Experiment 1 was to run for 3 weeks, but was accidentally disrupted during the third week.

Setting [2] is: per pen of 5 chicks, 10 mg cGMP/kg of feed and/or 100 mg succinate/kg of feed, terminated after week 2.

Each structure is given as a SMILES string.

Here are results for 11 compounds from patent US20040192638A1, “Method and composition for prolonging the residence time of drugs in the gut” (priority 2001, published 2004).

On to `Nc1nc2c(nc(Br)n2[C@@H]2O[C@@H]3COP(=O)(O)O[C@H]3[C@H]2O)c(=O)[nH]1` [8-Br-cGMP, reference compound], for which, in the assay on rat small intestine (10 mM), the “SSP/Hr (MEAN ± SE)” value is recorded as 0.50 ± 0.31 SSP/Hr and the “SSP frequency compared with saline controls / background (in words)” value is listed as “did not significantly increase”.

`CC(=O)O` [Acetate, reference compound]: in the assay on rat small intestine (50 mM), the “SSP/Hr (MEAN ± SE)” value was found to be 0 SSP/Hr. In addition, the “stimulation / induction of SSP above background levels (in words)” value (shortened to “stimulation / induction”) in the assay with rat small intestine was “lack of SSP induction”.

Consider `N[C@@H](C(=O)O)[C@@H](O)[C@H](O)[C@H](O)CO` [D-Glucosaminic Acid, D-glucosaminic acid, reference compound], for which the “SSP/Hr (MEAN ± SE)” value with rat small intestine (0.25 mM) was 0 SSP/Hr. Further, the “stimulation / induction” value with rat small intestine was “lack of SSP induction”.

For `Nc1nc2nc[nH]c2c(=O)[nH]1` [Guanine suspension, guanine, reference compound], the “SSP/Hr (MEAN ± SE)” value in the assay with rat small intestine (10 mM) stood at 0 SSP/Hr.

Take `Nc1nc2nc[nH]c2c(=O)[nH]1` [Guanine, guanine, reference compound]: the results for the “SSP/Hr (MEAN ± SE)” value in the assay with rat small intestine (0.1 mM), in the assay on rat small intestine (1 mM) and in the assay with rat small intestine (10 mM) were 1.33 SSP/Hr, 1.33 ± 0.94 SSP/Hr and 0.33 ± 0.24 SSP/Hr, respectively. The “SSP frequency compared with saline controls / background (in words)” value in the assay with rat small intestine (10 mM) is on record as “not significantly different from saline controls”.

Consider `Nc1nc2c(ncn2[C@@H]2O[C@H](COP(=O)(O)O)[C@@H](O)[C@H]2O)c(=O)[nH]1` [Guanosine Monophosphate, reference compound], for which, in the assay with rat small intestine (10 mM), the “SSP/Hr (MEAN ± SE)” value came out at 0.5 ± 0.3 SSP/Hr.

Turning to `Nc1nc2c(ncn2[C@@H]2O[C@H](CO)[C@@H](O)[C@H]2O)c(=O)[nH]1` [Guanosine, guanosine, reference compound], in the assay on rat small intestine (10 mM), the “SSP/Hr (MEAN ± SE)” value was 0.50 ± 0.28 SSP/Hr and the “SSP frequency compared with saline controls / background (in words)” value is recorded as “not significantly different from saline controls”.

With `CC(O)C(=O)O` (stereo not shown) [Lactic Acid, reference compound], the “SSP/Hr (MEAN ± SE)” value in the assay with rat small intestine (20 mM) turned out to be 0 SSP/Hr. In addition, the “stimulation / induction” value with rat small intestine is reported as “lack of SSP induction”.

In the case of `O=C(O)CCC(=O)O` [Succinate, succinic acid], in assay [1] (grams of feed consumed/grams of weight gain), the “Feed Conversion Ration FCR” value was 1.561 ± 0.073. Further, in assay [1] (setting [2]), the “Feed Intake” value came out at 2127 ± 257 and the Gain was determined as 1372 ± 194. Moreover, the “SSP frequency / SSP induction compared with saline controls (in words)” value in the assay on rat small intestine (100 mM infused into intestinal lumen) is “failure”. Further, in the assay on rat small intestine (100 mM), the “SSP/Hr (MEAN ± SE)” value is given as 0.33 ± 0.27 SSP/Hr. For the same compound, the “stimulation / induction” value in the assay on rat small intestine is on record as “does not alter motility”. In the assay on rat small intestine (listed as succinate), the “stimulation / induction” value is reported as “lack of SSP induction”.

Consider `O=c1[nH]cnc2c1ncn2[C@@H]1O[C@@H]2COP(=O)(O)O[C@H]2[C@H]1O` [cIMP, reference compound], for which, in the assay with rat small intestine, the “stimulation / induction” value is given as “no response”.

As for `O=c1ccn([C@@H]2O[C@@H]3COP(=O)(O)O[C@H]3[C@H]2O)c(=O)[nH]1` [cUMP, reference compound], in the assay with rat small intestine, the “stimulation / induction” value is reported as “no response”.
